Measured values as given in article PMC3660459 (PLoS ONE, 2013).
pIC50: −log10 of the molar value. ≈ marks a conversion by molar mass, not a printed value. Where “and” joins values, the source holds several entries; their conditions need not be identical. Identical values can stand only once.

Experiments:
[1] = test system: F. tularensis Schu S4; type: cell-based, Francisella tularensis subspecies tularensis Schu S4
[2] = test system: RAW 264.7 cells
[3] = test system: F. tularensis Schu S4; assay: microbe, parasite or virus in culture; type: cell-based, Francisella tularensis subspecies tularensis Schu S4; settings: Francisella tularensis, SCHUS4
[4] = test system: B. anthracis Sterne; settings: cited from earlier work
[5] = biological target: NH3-dependent NAD^+ synthetase (nadE); settings: read-out: enzymatic IC50; cited from earlier work

Compound	Growth Inhibition [1]	other results
Nc1nc(NC2CC2)c2ncn([C@H]3C=C[C@@H](CO)C3)c2n1 [Compound 1, [n]2(c3nc(nc(c3nc2)NC4CC4)N)[C@@H]1C[C@@H](C = C1)CO]	No	–
O.O.O=C1NC(c2ccccc2)(c2ccccc2)C(=O)N1COP(=O)(O)O [Compound 2, [P]( = O)([O-])([O-])OCN1C( = O)NC(C1 = O)(c3ccccc3)c2ccccc2.O.O]	No	–
CC(c1cc2ccccc2s1)N(O)C(N)=O (centres unmarked) [Compound 3, [s]1c2c(cc1C(N(O)C( = O)N)C)cccc2]	No	–
Cc1ccc(-c2cc(C(F)(F)F)nn2-c2ccc(S(N)(=O)=O)cc2)cc1 [Compound 4, FC(F)(F)c1n[n](c(c1)c3ccc(cc3)C)c2ccc(cc2)[S]( = O)( = O)N]	No	–
O=C1/C(=C\c2ccc(-n3ccnc3)cc2)Oc2cc(O)ccc21 [Compound 5, [n]4(cncc4)c1ccc(cc1)\C = C2\Oc3c(ccc(c3)O)C\2 = O]	showed activity against the bacteria and Yes	Toxicity [2]: non-toxic; MIC [3]: > 125 µg/mL
Cc1cc(CC(N)C(=O)O)on1 (centres unmarked) [Compound 6, NC(Cc1[o]nc(c1)C)C( = O)O]	No	–
NC(Cc1ccc(Br)s1)C(=O)O (centres unmarked) [Compound 7, [s]1c(ccc1CC(N)C( = O)O)Br]	No	–
C=C(O[C@@H]1C=C(C(=O)O)C=C[C@H]1O)C(=O)O [Compound 8, O([C@H]1[C@@H](C = CC( = C1)C( = O)O)O)C( = C)C( = O)O]	No	–
O=C1NN(c2cccc(Br)c2)C(=O)/C1=C\c1ccc(-c2ccccc2C(=O)O)o1 [Compound 9, Brc1cc(ccc1)N2NC( = O)\C( = C\c3[o]c(cc3)c4c(cccc4)C( = O)O)\C2 = O]	No	–
NC(=O)c1ccc(-c2ccc(/C=C3/C(=O)NN(c4ccc(F)cc4)C3=O)o2)cc1 [Compound 10, Fc1ccc(cc1)N2NC( = O)\C( = C\c3[o]c(cc3)c4ccc(cc4)C( = O)N)\C2 = O]	No	–
COc1cc(C=O)ccc1OCc1ccccc1COc1ccc(/C=C2/SC(=S)NC2=O)cc1OC [Compound 11, S1\C( = C\c2cc(c(cc2)OCc3c(cccc3)COc4c(cc(cc4)C = O)OC)OC)\C( = O)NC1 = S]	No	–
O=Cc1cnn2c(=O)c3ccccc3[nH]c12 [Compound 12, [n]21ncc(c2Nc3c(cccc3)C1 = O)C = O]	showed activity against the bacteria and Yes	MIC [3]: 63 µg/mL (≈ 296 µM)
Cc1nn2c(=O)c3ccccc3[nH]c2c1C=O [Compound 13, [n]21nc(c(c2Nc3c(cccc3)C1 = O)C = O)C]	showed activity against the bacteria and Yes	Toxicity [2]: non-toxic; MIC [3]: > 125 µg/mL and ~400 µM
Cc1cc(Nc2ccccc2)n(C(=O)c2ccc(Cl)cc2)n1 [Compound 14, Clc1ccc(cc1)C( = O)[n]2nc(cc2Nc3ccccc3)C]	showed activity against the bacteria and Yes	Reduction of growth versus no-compound control [1]: completely abolished bacterial growth; MIC [3]: 4 µg/mL (≈ 12.8 µM)
Nc1ccccc1CN1C(=O)c2ccccc2C1=O [Compound 15, N2(C( = O)c3c(cccc3)C2 = O)Cc1c(cccc1)N]	No	–
N#Cc1ccc(Oc2ccccc2O)c(F)c1 [Compound 16, Fc1c(ccc(c1)C#N)Oc2c(cccc2)O]	No	–
NC(=O)c1ccc(Oc2ccccc2O)c(F)c1 [Compound 17, Fc1c(ccc(c1)C( = O)N)Oc2c(cccc2)O]	No	–
Cc1cc2ccccc2n1CC(=O)NCc1cccnc1N(C)C [Compound 18, [n]2(c3c(cc2C)cccc3)CC( = O)NCc1c(nccc1)N(C)C]	No	–
Nc1nc(O)c2nc(CNc3ccc(C(=O)O)cc3)cnc2n1 [Compound 19, N(Cc2nc3c(nc(nc3O)N)nc2)c1ccc(cc1)C( = O)O]	No	–
Nc1nc(N)c2nc(CNc3ccc(C(=O)O)cc3)cnc2n1 [Compound 20, N(Cc2nc3c(nc(nc3N)N)nc2)c1ccc(cc1)C( = O)[O-]]	No	–

Compound	Growth Inhibition [1]	other results
NC(=O)c1nc[nH]c1C(N)=O [Compound 21, [nH]1cnc(c1C( = O)N)C( = O)N]	No	–
O=[N+]([O-])c1ccc(NC2OC(CO)C(O)C(O)C2O)cc1 (centres unmarked) [Compound 22, [N+]( = O)([O-])c1ccc(cc1)NC2OC(C(C(C2O)O)O)CO]	No	–
Cc1ccc(OC2OC(CO)C(O)C(O)C2O)cc1C (centres unmarked) [Compound 23, O1C(C(C(C(C1CO)O)O)O)Oc2cc(c(cc2)C)C]	No	–
OCC1OC(Oc2ccc(Cl)cc2Cl)C(O)C(O)C1O (centres unmarked) [Compound 24, Clc1c(ccc(c1)Cl)OC2OC(C(C(C2O)O)O)CO]	showed activity against the bacteria and Yes	Toxicity [2]: non-toxic; MIC [3]: > 125 µg/mL and ~400 µM
CCOc1ccc(NC2OC(CO)C(O)C(O)C2O)cc1 (centres unmarked) [Compound 25, N(C2OC(C(C(C2O)O)O)CO)c1ccc(cc1)OCC]	No	–
OCC1OC(Nc2ccccc2)C(O)C(O)C1O (centres unmarked) [Compound 26, N(C2OC(C(C(C2O)O)O)CO)c1ccccc1]	No	–
O[C@@H]1[C@@H](O)[C@H](Nc2ccc(Br)cc2)OC[C@H]1O [Compound 27, Brc1ccc(cc1)N[C@@H]2OC[C@H]([C@@H]([C@H]2O)O)O]	No	–
NC(=O)c1ncn([C@@H]2O[C@H](CO)[C@@H](O)[C@H]2O)c1O [Compound 28, [n]2(cnc(c2O)C( = O)N)[C@@H]1O[C@@H]([C@H]([C@H]1O)O)CO]	No	–
Cc1ccc(NC2OCC(O)C(O)C2O)cc1 (centres unmarked) [Compound 29, N(C2OCC(C(C2O)O)O)c1ccc(cc1)C]	No	–
NC(=O)c1ncn([C@@H]2O[C@H](CO)C(O)C2O)c1N (some centres unmarked) [Compound 30, [n]2(cnc(c2N)C( = O)N)[C@@H]1O[C@@H](C(C1O)O)CO]	No	–
CCOC(=O)c1cc2c(nc1C(=O)OCC)CCCC2=O [Compound 31, n1c2c(cc(c1C( = O)OCC)C( = O)OCC)C( = O)CCC2]	No	–
NC(=O)COc1cccnc1C(=O)O [Compound 32, NC( = O)COc1c(nccc1)C( = O)O]	No	–
COc1ccc([C@@H]2CC(=O)c3c(O)cc(O)cc3O2)cc1O [Compound 33, O1[C@@H](CC( = O)c3c1cc(cc3O)O)c2cc(c(cc2)OC)O]	No	–
CC(C)[C@H](N)C(=O)OCCOCn1cnc2c(O)nc(N)nc21 [Compound 34, [n]1(c2nc(nc(c2nc1)O)N)COCCOC( = O)[C@@H](N)C(C)C]	No	–
O=[N+]([O-])c1ccc(O)c(/C=N/c2cccc(O)c2)c1 [Compound 35, [N+]( = O)([O-])c1cc(c(cc1)O)\C = N\c2cc(ccc2)O]	showed activity against the bacteria and Yes	Reduction of growth versus no-compound control [1]: completely abolished bacterial growth; MIC [3]: 32 µg/mL (≈ 124 µM); MIC [4]: > 387 µM; pIC50 [5]: 5.60
O=C(Cn1cc(/C=C/c2nc(O)nc(O)c2[N+](=O)[O-])c2ccccc21)Nc1ccc(F)cc1 [Compound 36, Fc1ccc(cc1)NC( = O)C[n]2c3c(c(c2)\C = C\c4nc(nc(c4[N+]( = O)[O-])O)O)cccc3]	No	–
CC1(C)S[C@@H]2[C@H](NC(=O)COc3ccccc3)C(=O)N2[C@H]1C(=O)O [Compound 37, S1[C@H]2N([C@H](C1(C)C)C( = O)[O-])C( = O)[C@H]2NC( = O)COc3ccccc3]	No	–
CC1=CC(O)(c2ccccc2)N(C(=O)c2ccncc2)N1 (centres unmarked) [Compound 39, N2(NC( = CC2(O)c3ccccc3)C)C( = O)c1ccncc1]	No	–
COc1ccc(C2(O)C=C(C)NN2C(=O)c2ccccc2)cc1 (centres unmarked) [Compound 40, N2(NC( = CC2(O)c3ccc(cc3)OC)C)C( = O)c1ccccc1]	No	–
N2(NC( = CC2(O)c3cc(ccc3)OC)CC)C( = O)c1ccccc1 [Compound 38]	No	–
